Assay results taken from patent US5753673A, “Quinolinecarboxylic acid derivatives” (Taisho Pharmaceutical Co., Ltd., priority 1994, dated 1998).
Where a name gives a salt, the structure may show the parent alone.

molecular target: T1, serotonin 4 receptor (5-HT4) (Cavia porcellus, UniProt O70528); test: Stimulating activity on serotonin 4 receptor (twitch response in guinea pig ileum); format: cell-based; details: not given
T1 construct: from tissue; host or cells: longitudinal muscle strips of guinea pig ileum (Harley guinea pigs)
Procedure: Stimulating activity on serotonin 4 receptor
From Harley guinea pigs weighing 250 to 400 g, a section of ileum 10 to 20 cm proximal to the ileocecal junction was removed. Longitudinal muscle strips obtained from the ileum were used for this assay. The preparations were suspended in Krebs' solution at 32 to 34° C., bubbled continuously with 95% O2 and 5% CO2, and subjected to initial tension of about 0.8 g. Responses were recorded isometrically. Twitch responses were evoked by electrical stimulation (0.2 Hz, 1 msec pulse duration). The preparations were stimulated at supramaximal voltage for 2 to 3 hours, and were then allowed to equilibrate for about 1 hour at submaximal voltage. […] The preparations were left for at least 45 minutes before cumulative addition of each agonist.
The quinolinecarboxylic acid derivatives of the present invention were employed as sample compounds. For comparison, the following compounds were employed. These compounds were diluted by dissolving them in distilled water or in DMSO.
The data obtained was analyzed by RS1 (BBN Software Product Co.).

T1 sequence (O70528 whole entry): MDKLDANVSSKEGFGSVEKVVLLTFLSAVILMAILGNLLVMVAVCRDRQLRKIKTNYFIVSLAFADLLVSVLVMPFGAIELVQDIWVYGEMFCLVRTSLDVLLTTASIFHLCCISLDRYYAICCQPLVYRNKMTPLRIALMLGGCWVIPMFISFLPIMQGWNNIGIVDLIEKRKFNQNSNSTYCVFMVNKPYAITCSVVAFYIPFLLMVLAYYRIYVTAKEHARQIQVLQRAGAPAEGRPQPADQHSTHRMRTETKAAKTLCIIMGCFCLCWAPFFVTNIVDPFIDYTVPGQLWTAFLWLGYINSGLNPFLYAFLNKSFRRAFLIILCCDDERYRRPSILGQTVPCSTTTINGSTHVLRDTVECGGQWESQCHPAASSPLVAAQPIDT

Compared with `CC(C)n1c(=O)c(C(=O)O[C@H]2C[C@H]3CC[C@@H](C2)N3CCCCCCO)cc2ccccc21` [Compound 41, Endo-8-(6-hydroxyhexyl)-8-azabicyclo[3.2.1]oct-3-yl 1-isopropyl-2-oxo-1,2-dihydro-3-quinolinecarboxylate hydrochloride], `CC(C)n1c(=O)c(C(=O)OC2CC3CCC(C2)N3CCCCCO)cc2ccccc21` (stereo not drawn) [Compound 40, Endo-8-(5-hydroxypentyl)-8-azabicyclo[3.2.1]oct-3-yl 1-isopropyl-2-oxo-1,2-dihydro-3-quinolinecarboxylate hydrochloride] is 2-fold lower in EC50: 50.9 nM for the first, 25.5 nM for the second.

First: CC(=O)CN1C2CCC1CC(NC(=O)c1cc3ccccc3n(C(C)C)c1=O)C2 (stereo not drawn) [Compound 30, Endo-N-(8-(2-oxopropyl)-8-azabicyclo[3.2.1]oct-3-yl)-1-isopropyl-2-oxo-1,2-dihydro-3-quinolinecarboxamide hydrochloride]
Second: CC(C)n1c(=O)c(C(=O)NC2CC3CCC(C2)N3CC(N)=O)cc2ccccc21 (stereo not drawn) [Compound 34, Endo-N-(8-carbamoylmethyl-8-azabicyclo[3.2.1]oct-3-yl)-1-isopropyl-2-oxo-1,2-dihydro-3-quinolinecarboxamide]
The EC50 of the first is 5.4-fold lower: 11.5 nM for the first, 61.9 nM for the second.

`CC(=O)CN1[C@@H]2CC[C@H]1C[C@@H](OC(=O)c1cc3ccccc3n(C(C)C)c1=O)C2` [Compound 52, Endo-8-(2-oxopropyl)-8-azabicyclo[3.2.1]oct-3-yl 1-isopropyl-2-oxo-1,2-dihydro-3-quinolinecarboxylate hydrochloride] and `CC(C)n1c(=O)c(C(=O)O[C@H]2C[C@H]3CC[C@@H](C2)N3CC(N)=O)cc2ccccc21` [Compound 56, Endo-8-carbamoylmethyl-8-azabicyclo[3.2.1]oct-3-yl 1-isopropyl-2-oxo-1,2-dihydro-3-quinolinecarboxylate] are within 1.5-fold of each other in EC50: 24.6 nM for the first, 31.4 nM for the second.

First: COCCOCCN1[C@@H]2CC[C@H]1C[C@@H](OC(=O)c1cc3ccccc3n(C(C)C)c1=O)C2 [Compound 59, Endo-8-(2-(2-methoxyethoxy)ethyl)-8-azabicyclo[3.2.1]oct-3-yl 1-isopropyl-2-oxo-1,2-dihydro-3-quinolinecarboxylate hydrochloride]
Second: COCCN1[C@@H]2CC[C@H]1C[C@@H](OC(=O)c1cc3ccccc3n(C(C)C)c1=O)C2 [Compound 42, Endo-8-(2-methoxyethyl)-8-azabicyclo[3.2.1]oct-3-yl 1-isopropyl-2-oxo-1,2-dihydro-3-quinolinecarboxylate hydrochloride]
The EC50 of the first is 4-fold higher: 73.7 nM for the first, 18.4 nM for the second. The second is the more potent here.

Compared with `CCN(CC)CCN1[C@@H]2CC[C@H]1C[C@@H](OC(=O)c1cc3ccccc3n(C(C)C)c1=O)C2` [Compound 44, Endo-8-(2-diethylaminoethyl)-8-azabicyclo[3.2.1]oct-3-yl 1-isopropyl-2-oxo-1,2-dihydro-3-quinolinecarboxylate dihydrochloride], `CCOCCN1[C@@H]2CC[C@H]1C[C@@H](OC(=O)c1cc3ccccc3n(C(C)C)c1=O)C2` [Compound 43, Endo-8-(2-ethoxyethyl)-8-azabicyclo[3.2.1]oct-3-yl 1-isopropyl-2-oxo-1,2-dihydro-3-quinolinecarboxylate hydrochloride] is 4.8-fold lower in EC50: 72.6 nM for the first, 15.2 nM for the second. The second is the more potent here.

Going from `CC(C)n1c(=O)c(C(=O)NC2CC3CCC(C2)N3CC2CCCCO2)cc2ccccc21` (stereo not drawn) [Compound 22, Endo-N-(8-(tetrahydropyran-2-methyl)-8-azabicyclo[3.2.1]oct-3-yl)-1-isopropyl-2-oxo-1,2-dihydro-3-quinolinecarboxamide] to `CC(C)n1c(=O)c(C(=O)O[C@H]2C[C@H]3CC[C@@H](C2)N3CC2CCCCO2)cc2ccccc21` (stereo partly drawn) [Compound 48, Endo-8-(tetrahydropyran-2-methyl)-8-azabicyclo[3.2.1]oct-3-yl 1-isopropyl-2-oxo-1,2-dihydro-3-quinolinecarboxylate hydrochloride], the EC50 rises from 24 nM to 55.9 nM (2.3-fold). The first is the more potent here.

First: C=CCN1C2CCC1CC(OC(=O)c1cc3ccccc3n(C(C)C)c1=O)C2 (stereo not drawn) [Compound 35, endo-8-(2-propenyl)-8-azabicyclo[3.2.1]oct-3-yl 1-isopropyl-2-oxo-1,2-dihydro-3-quinolinecarboxylate hydrochloride]
Second: CC(C)n1c(=O)c(C(=O)O[C@H]2C[C@H]3CC[C@@H](C2)N3CCC#N)cc2ccccc21 [Compound 55, Endo-8-(2-cyanoethyl)-8-azabicyclo[3.2.1]oct-3-yl 1-isopropyl-2-oxo-1,2-dihydro-3-quinolinecarboxylate]
The EC50 of the first is 2-fold higher: 54.4 nM for the first, 27.3 nM for the second. The second is the more potent here.

`CCOC(=O)CCCN1[C@@H]2CC[C@H]1C[C@@H](OC(=O)c1cc3ccccc3n(C(C)C)c1=O)C2` [Compound 51, Endo-8-(3-(ethoxycarbonyl)propyl)-8-azabicyclo[3.2.1]oct-3-yl 1-isopropyl-2-oxo-1,2-dihydro-3-quinolinecarboxylate hydrochloride] and `CCOC(=O)CCCN1C2CCC1CC(NC(=O)c1cc3ccccc3n(C(C)C)c1=O)C2` (stereo not drawn) [Compound 27, Endo-N-(8-(3-(ethoxycarbonyl)propyl)-8-azabicyclo[3.2.1]oct-3-yl)-1-isopropyl-2-oxo-1,2-dihydro-3-quinolinecarboxamide hydrochloride] are within 1.5-fold of each other in EC50: 23 nM for the first, 19.3 nM for the second.

`CC(C)n1c(=O)c(C(=O)NC2CC3CCC(C2)N3CCCCO)cc2ccccc21` (stereo not drawn) [Compound 6, Endo-N-(8-(4-hydroxybutyl)-8-azabicyclo[3.2.1]oct-3-yl)-1-isopropyl-2-oxo-1,2-dihydro-3-quinolinecarboxamide] and `CC(C)n1c(=O)c(C(=O)NC2CC3CCC(C2)N3CCCCCO)cc2ccccc21` (stereo not drawn) [Compound 7, Endo-N-(8-(5-hydroxypentyl)-8-azabicyclo[3.2.1]oct-3-yl)-1-isopropyl-2-oxo-1,2-dihydro-3-quinolinecarboxamide] are within 1.5-fold of each other in EC50: 38.5 nM for the first, 30.8 nM for the second.

`CC(C)n1c(=O)c(C(=O)NC2CC3CCC(C2)N3CCO)cc2ccccc21` (stereo not drawn) [Compound 4, Endo-N-(8-(2-hydroxyethyl)-8-azabicyclo[3.2.1]oct-3-yl)-1-isopropyl-2-oxo-1,2-dihydro-3-quinolinecarboxamide] and `CC(C)n1c(=O)c(C(=O)NC2CC3CCC(C2)N3CCCCCCO)cc2ccccc21` (stereo not drawn) [Compound 8, Endo-N-(8-(6-hydroxyhexyl)-8-azabicyclo[3.2.1]oct-3-yl)-1-isopropyl-2-oxo-1,2-dihydro-3-quinolinecarboxamide hydrochloride] are within 1.5-fold of each other in EC50: 45.9 nM for the first, 62.3 nM for the second.

Going from `CC(=O)CCCN1C2CCC1CC(NC(=O)c1cc3ccccc3n(C(C)C)c1=O)C2` (stereo not drawn) [Compound 31, Endo-N-(8-(4-oxopentyl)-8-azabicyclo[3.2.1]oct-3-yl)-1-isopropyl-2-oxo-1,2-dihydro-3-quinolinecarboxamide] to `CC(=O)OCCCCCN1C2CCC1CC(NC(=O)c1cc3ccccc3n(C(C)C)c1=O)C2` (stereo not drawn) [Compound 9, Endo-N-(8-(5-acetoxypentyl)-8-azabicyclo[3.2.1]oct-3-yl)-1-isopropyl-2-oxo-1,2-dihydro-3-quinolinecarboxamide hydrochloride], the EC50 falls from 52.3 nM to 33 nM (1.6-fold). The second is the more potent here.

`CC(C)n1c(=O)c(C(=O)O[C@H]2C[C@H]3CC[C@@H](C2)N3CCOc2ccccc2)cc2ccccc21` [Compound 49, Endo-8-(2-phenoxyethyl)-8-azabicyclo[3.2.1]oct-3-yl 1-isopropyl-2-oxo-1,2-dihydro-3-quinolinecarboxylate hydrochloride] and `CC(C)n1c(=O)c(C(=O)O[C@H]2C[C@H]3CC[C@@H](C2)N3CCS(=O)(=O)c2ccccc2)cc2ccccc21` [Compound 46, Endo-8-(2-(phenylsulfonyl)ethyl)-8-azabicyclo[3.2.1]oct-3-yl 1-isopropyl-2-oxo-1,2-dihydro-3-quinolinecarboxylate] are within 1.5-fold of each other in EC50: 39 nM for the first, 46.5 nM for the second.

Going from `C=CCN1C2CCC1CC(NC(=O)c1cc3ccccc3n(C(C)C)c1=O)C2` (stereo not drawn) [Compound 1, endo-N-(8-(2-propenyl)-8-azabicyclo[3.2.1]oct-3-yl)-1-isopropyl-2-oxo-1,2-dihydro-3-quinolinecarboxamide] to `CC(C)n1c(=O)c(C(=O)OC2CC3CCC(C2)N3CCCO)cc2ccccc21` (stereo not drawn) [Compound 38, Endo-8-(3-hydroxypropyl)-8-azabicyclo[3.2.1]oct-3-yl 1-isopropyl-2-oxo-1,2-dihydro-3-quinolinecarboxylate], the EC50 falls from 59.2 nM to 11.9 nM (5-fold).

With `CC(C)n1c(=O)c(C(=O)O[C@H]2C[C@H]3CC[C@@H](C2)N3CCN2CCOCC2)cc2ccccc21` [Compound 47, Endo-8-(2-morpholinoethyl)-8-azabicyclo[3.2.1]oct-3-yl 1-isopropyl-2-oxo-1,2-dihydro-3-quinoline-carboxylate dihydrochloride] the EC50 was 30.8 nM.

same assay, conditions: twitch response in guinea pig ileum; maximum contraction of sample compound = 100%; read-out: ED50 (concentration enhancing the twitch response by 50%)

`CN1[C@@H]2CC[C@H]1C[C@@H](OC(=O)c1cc3ccccc3[nH]c1=O)C2` [Comparative Compound 3, reference compound] and `CN1[C@@H]2CC[C@H]1C[C@@H](NC(=O)c1cc3ccccc3[nH]c1=O)C2` [Comparative Compound 2, reference compound] cannot be ordered by EC50: > 3000 nM for the first, > 3000 nM for the second.

`COc1ccc(N2[C@@H]3CC[C@H]2C[C@@H](OC(=O)c2cc4ccccc4n(C(C)C)c2=O)C3)cc1` [Compound 57, endo-8-(4-methoxyphenyl)-8-azabicyclo[3.2.1]oct-3-yl 1-isopropyl-2-oxo-1,2-dihydro-3-quinolinecarboxylate, reference compound] and `CCCCn1c(=O)c(C(=O)N[C@H]2C[C@H]3CC[C@@H](C2)N3C)c(O)c2ccccc21` [Comparative Compound 4, reference compound] cannot be ordered by EC50: > 3000 nM for the first, > 3000 nM for the second.
